The values that follow come from patent USRE49035E1, “Traditional Chinese medicine composition, and preparation and application thereof” (Tasly Pharmaceutical Group Co., Ltd., priority 2013, dated 2022).

Common to all, as to type: in vivo
The test system of assay [1] is collagen-induced platelet aggregation. The assay can be described thus: Collagen-induced platelet aggregation rate trial in rabbits. Particulars: collagen 5 μg/ml; dose 60 mg/kg intragastrically once a day for 7 d. As for the experimental part: (§1) The rabbits were randomly grouped into 4 groups: the model group was given with distilled water, the aspirin group ([…]), Extract A groups of low dose and high dose at 42 and 84 mg/kg (respectively 1 2 times of clinic equivalent dosage), intragastrically administrated, once a day for 7 consecutive days. The volume of medicine administrated was 1 ml/kg body weight. 60 min after intragastric administration on 7th day, the animals were anesthetized locally, blooded through carotid artery, anticoagulated with sodium citrate (3.8%) 1:9 and centrifugated at 1000 r/min for 10 min. Platelet-rich plasma (PRP) was taken and the remain centrifugated at 3000 r/min to take platelet-poor plasma (PPP. Aggregation was induced by ADP (final concentration 3 μg/ml), AA (final concentration 80 μg/ml) and collagen (5 μg/ml). […] platelet aggregation & coagulation factor analyzer was used to measure the maximum platelet aggregation rate and to calculate inhibition rate according to following formula. [formula]

Assay [2] has as its system AA-induced platelet aggregation. The assay can be described thus: AA-induced platelet aggregation rate trial in rabbits. Particulars: AA final 80 μg/ml; dose 60 mg/kg intragastrically once a day for 7 d. The method, then:
as §1

Assay [3] relates to ADP-induced platelet aggregation. The assay can be described thus: ADP-induced platelet aggregation rate trial in rabbits. Particulars: ADP final 3 μg/ml; dose 60 mg/kg intragastrically once a day for 7 d. As for the experimental part: as §1

For `CC(=O)Oc1ccccc1C(=O)O` [Aspirin], the Platelet aggregation rate in assay [1] is 6.06 ± 2.07 %; in assay [2] it was 5.80 ± 1.85 %; in assay [3] it was 19.15 ± 4.08 %.
